{"source": "paper PMC8766756", "about": "“Insights on Cancer Cell Inhibition, Subcellular Activities, and Kinase Profile of Phenylacetamides Pending 1H-Imidazol-5-One Variants” (Frontiers in Pharmacology, 2022)", "tested_on": "HCT116 cells", "assay": "Cytotoxic assay in presence of antioxidant N-acetylcysteine", "type": "cell-based", "details": "48 h, MTT", "excerpt": "Oxidative stress expressed as the reactive oxygen species (ROS) level is an important marker in cell death under the effect of certain cytotoxic drugs. Elevation of ROS may occur as a direct mechanism of some drugs such as Adriamycin ([Kim et al., 2019]) and trans-cinnamaldehyde ([Afanas’ev, 2011]; [Ka et al., 2003]) (safe covalent natural compound) or indirectly by the modulation of certain cellular contents ([Teppo et al., 2017]; [Perillo et al., 2020]). The involvement of ROS elevation and oxidative stress in the cytotoxic activities of KIM-161 on HCT116 was assessed. In this assay, the antioxidant N-acetylcysteine (NAC) was added at a very high concentration (5 mM) to check if it reverses the cytotoxic activities of KIM-161 on HCT116.\nFIGURE 10 Effect of antioxidant pretreatment on viability of HCT116 treated with KIM-161. […] Cell viability was expressed as a percentage of vehicle control and was measured by the MTT assay (average of two independent experiments). Statistical significance was determined by two-way ANOVA using Šídák’s multiple comparisons test. * = p < 0.05; *** = p ≤ 0.001; **** = p < 0.0001.\nHCT116 cells were seeded at a density of 5 × 10^4 cells/well in 96-well plates and left overnight to adhere. […] Cell viability was expressed as a percentage of the vehicle control (1% v/v ethanol) and was assessed using the MTT assay (data are expressed as mean ± SEM). […]"}
{"compound": "COc1ccc(/C=C2\\N=C(C)N(c3ccc(CC(=O)NCc4ccccc4)cc3)C2=O)cc1", "note": "[Compound 4c, (Z)-N-Benzyl-2-(4-(4-(4-methoxybenzylidene)-2-methyl-5-oxo-4,5-dihydro-1H-imidazol-1-yl)phenyl)acetamide]", "values": [{"measurement": "change of cytotoxic effect by NAC addition", "setting": "HCT116, KIM-161 0.5 µM, NAC 5 mM pretreatment 1 h", "value": "slightly altered"}, {"measurement": "change of cytotoxic effect by NAC addition", "setting": "HCT116, increasing KIM-161 concentration (1.0, 5.0 µM), NAC 5 mM", "value": "higher involvement of this factor in the anticancer effect"}]}
